The values below come from patent US20070191335A1, “Heterocylic antiviral compounds” (priority 2006, published 2007).

The target of data set [1] is T1, CCR5 (Homo sapiens, UniProt P51681).
T1 construct: host or cells: CEM-NKr-CCR5-Luc
The data set can be described thus: CCR5-Mediated CCF Assay. The conditions noted are these: Hela-R5 cells (gp160) co-cultured 24 hrs with CEM-NKr-CCR5-Luc cells, luciferase readout. Type of data set: cell-based. The protocol:
CCF assay was performed as described before (C. Ji, J. Zhang, N. Cammack and S. Sankuratri 2006 J. Biomol. Screen. in press). Hela-R5 cells (express gp160 from R5-tropic virus and HIV-1 T at) were plated in 384 well white culture plates (BD Bioscience, Palo Alto, Calif.) at 7.5×10^3 cells per well in phenol red-free Dulbecco's Modified Eagle Medium (DMEM) supplemented with 10% FBS, 1× Pen-Strep, 300 μg/ml G418, 100 μg/ml hygromycin, and 1 μg/ml doxycycline (Dox) (BD Bioscience, Palo Alto, Calif.), using Multimek (Beckman, Fullerton, Calif.) and incubated at 37° C. overnight to induce the expression of gp160. Ten μl diluted compounds in medium containing 5% DMSO were added to the cells, followed by the addition of CEM-NKr-CCR5-Luc (obtained from NIH AIDS Research & Reference Reagents Program) that expresses CD4 and CCR5 and carries a HIV-2 long terminal repeat (LTR)-driven luciferase reporter gene at 1.5×10^4 cells/15 μl/well and incubated for 24 hrs. At the end of co-culture, 15 μl of Steady-Glo luciferase substrate was added into each well, and the cultures were sealed and gently shaken for 45 min. The luciferase activity were measured for 10 sec per well as luminescence by using 16-channel TopCount NXT (PerkinElmer, Shelton, Conn.) with 10 min dark adaptation and the readout is count per second (CPS). For the drug interaction experiments, small molecule compounds or antibodies were serially diluted in serum-free and phenol red-free RPMI containing 5% dimethyl sulfoxide (DMSO) (CalBiochem, La Jolla, Calif.) and 1× Pen-Strep. Five μl each of the two diluted compound or mAb to be tested for drug-drug interactions were added to the Hela-R5 cells right before the addition of target cells.

Structures can show the parent of a compound that is named as a salt.

T1 sequence (P51681 whole entry): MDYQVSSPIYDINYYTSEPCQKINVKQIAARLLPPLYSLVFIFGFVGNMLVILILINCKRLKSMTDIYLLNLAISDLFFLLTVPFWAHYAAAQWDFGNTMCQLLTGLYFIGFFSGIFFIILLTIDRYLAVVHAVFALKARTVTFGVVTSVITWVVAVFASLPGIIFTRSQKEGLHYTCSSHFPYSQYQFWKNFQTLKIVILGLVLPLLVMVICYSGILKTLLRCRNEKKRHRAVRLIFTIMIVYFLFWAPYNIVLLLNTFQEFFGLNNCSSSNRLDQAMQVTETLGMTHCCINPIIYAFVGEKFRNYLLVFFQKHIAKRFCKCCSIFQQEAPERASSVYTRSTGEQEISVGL

Regarding `Cc1nc(NS(C)(=O)=O)nc(C)c1C(=O)N1CC2CN(CC[C@H](NC(=O)C3CCCC3)c3ccccc3)CC2C1` (stereo partly drawn) [Compound I-42, Cyclopentanecarboxylic Acid {(S)-3-[5-(2-methanesulfonylamino-4,6-dimethyl-pyrimidine-5-carbonyl)-hexahydro-pyrrolo[3,4-c]pyrrol-2-yl]-1-phenyl-propyl}-amide], in data set [1], the IC50 (in general, the point on the concentration scale where inhibition reaches its midpoint) was less than 0.3 nM. Still for that read-out and setting: for `Cc1nc(Oc2cccc(C(=O)O)c2)nc(C)c1C(=O)N1CC2CN(CC[C@H](NC(=O)C3CCCC3)c3ccccc3)CC2C1` (stereo partly drawn) [Compound I-10, 3-(5-{5-[(S)-3-(cyclopentanecarbonyl-amino)-3-phenyl-propyl]-hexahydro-pyrrolo[3,4-c]pyrrole-2-carbonyl}-4,6-dimethyl-pyrimidin-2-yloxy)-benzoic acid, trifluoro acetic acid salt] the value was 1.1 nM; for `Cc1nc(Oc2ccc(C(=O)OCc3ccccc3)cc2)nc(C)c1C(=O)N1CC2CN(CC[C@H](NC(=O)C3CCCC3)c3ccccc3)CC2C1` (stereo partly drawn) [Compound I-7, 4-(5-{5-[(S)-3-(Cyclopentanecarbonyl-amino)-3-phenyl-propyl]-hexahydro-pyrrolo[3,4-c]pyrrole-2-carbonyl}-4,6-dimethyl-pyrimidin-2-yloxy)-benzoic acid benzyl ester], less than 0.3 nM.

`Cc1cc(=O)n(C)c(C)c1C(=O)N1CC2CN(CC[C@H](NC(=O)C3CCCC3)c3ccccc3)CC2C1` (stereo partly drawn) [III-13, Cyclopentanecarboxylic acid {(S)-1-phenyl-3-[-5-(1,2,4-trimethyl-6-oxo-1,6-dihydro-pyridine-3-carbonyl)-hexahydro-pyrrolo[3,4-c]pyrrol-2-yl]-propyl}-amide] returned an IC50 in data set [1] of 1.4 nM. Same read-out and setting: next, `CCOC(=O)c1cccc(Oc2nc(C)c(C(=O)N3CC4CN(CC[C@H](NC(=O)C5CCCC5)c5ccccc5)CC4C3)c(C)n2)c1` (stereo partly drawn) [Compound I-9, 3-(5-{5-[(S)-3-(Cyclopentanecarbonyl-amino)-3-phenyl-propyl]-hexahydro-pyrrolo[3,4-c]pyrrole-2-carbonyl}-4,6-dimethyl-pyrimidin-2-yloxy)-benzoic acid ethyl ester]: less than 0.3 nM. `COc1nc(C)c(C(=O)N2CC3CN(CC[C@H](NC(=O)C4CCCC4)c4ccccc4)CC3C2)c(C)n1` (stereo partly drawn) [Compound I-19, Cyclopentanecarboxylic Acid {(S)-3-[5-(2-methoxy-4,6-dimethyl-pyrimidine-5-carbonyl)-hexahydro-pyrrolo[3,4-c]pyrrol-2-yl]-1-phenyl-propyl}-amide] came in with an IC50 in data set [1] of 0.4 nM. On to `CCOC(=O)Cn1c(C)c(C(=O)N2CC3CN(CCCN(C(=O)C4CCN(C(C)=O)CC4)c4ccc(C)c(Cl)c4)CC3C2)c(C)cc1=O` (stereo not drawn) [III-1, [5-(5-{3-[(1-Acetyl-piperidine-4-carbonyl)-(3-chloro-4-methyl-phenyl)-amino]-propyl}-hexahydro-pyrrolo[3,4-c]pyrrole-2-carbonyl)-4,6-dimethyl-2-oxo-2H-pyridin-1-yl]-acetic acid ethyl ester], for which the melting point (commonly the temperature of the solid-liquid transition) lay within 88.2 to 89.1 °C. `Cc1cc(=O)n(C)c(C)c1C(=O)N1CC2CN(CC[C@H](NC(=O)C3CCC(F)(F)CC3)c3ccccc3)CC2C1` (stereo partly drawn) [III-15, 4,4-difluoro-cyclohexanecarboxylic acid {(S)-1-phenyl-3-[5-(1,2,4-trimethyl-6-oxo-1,6-dihydro-pyridine-3-carbonyl)-hexahydro-pyrrolo[3,4-c]pyrrol-2-yl]-propyl}-amide] gave an IC50 in data set [1] of 1.1 nM.

Take `Cc1nc(Oc2ccc(C(=O)O)cc2)nc(C)c1C(=O)N1CC2CN(CC[C@H](NC(=O)C3CCCC3)c3ccccc3)CC2C1` (stereo partly drawn) [Compound I-8, 4-(5-{5-[(S)-3-(cyclopentanecarbonyl-amino)-3-phenyl-propyl]-hexahydro-pyrrolo[3,4-c]pyrrole-2-carbonyl}-4,6-dimethyl-pyrimidin-2-yloxy)-benzoic acid trifluoro-acetate salt]: in data set [1], the IC50 turned out to be 0.9 nM. Same read-out and setting: next, `COC(=O)[C@@H](Oc1nc(C)c(C(=O)N2CC3CN(CC[C@H](NC(=O)C4CCCC4)c4ccccc4)CC3C2)c(C)n1)c1ccccc1` (stereo partly drawn) [Compound I-16, (S)-(5-{-5-[(S)-3-(Cyclopentanecarbonyl-amino)-3-phenyl-propyl]-hexahydro-pyrrolo[3,4-c]pyrrole-2-carbonyl}-4,6-dimethyl-pyrimidin-2-yloxy)-phenyl-acetic acid methyl ester]: 1 nM. Still for that read-out and setting: for `Cc1nn(-c2ccc(C(F)(F)F)cn2)c(C)c1C(=O)N1CC2CN(CC[C@H](NC(=O)C3CCOC3)c3cccc(F)c3)CC2C1` (stereo partly drawn) [II-3, Tetrahydro-furan-3-carboxylic acid [(S)-3-{5-[3,5-dimethyl-1-(5-trifluoromethyl-pyridin-2-yl)-1H-pyrazole-4-carbonyl]-hexahydro-pyrrolo[3,4-c]pyrrol-2-yl}-1-(3-fluoro-phenyl)-propyl]-amide] the value was less than 0.3 nM. With `Cc1nc(OCC(=O)OCc2ccccc2)nc(C)c1C(=O)N1CC2CN(CC[C@H](NC(=O)C3CCCC3)c3ccccc3)CC2C1` (stereo partly drawn) [Compound I-3, (5-{5-[(S)-3-(Cyclopentanecarbonyl-amino)-3-phenyl-propyl]-hexahydro-pyrrolo[3,4-c]pyrrole-2-carbonyl}-4,6-dimethyl-pyrimidin-2-yloxy)-acetic Acid Benzyl Ester], the IC50 in data set [1] is 0.5 nM.
